Reference: patent US20220389058A1, “PEPTIDES AND COMPOSITIONS FOR USE IN COSMETICS AND MEDICINE” (LIPOTRUE, S.L., priority 2019, published 2022)

Columns and labels:
IL33 = IL33 expression modulation by RT-qPCR in HEKa cells (Example 7); type: cell-based, Human; conditions: 0.01 mg/mL, 24 hours
Protocol: A stock solution of the peptide was prepared in water at 1 mg/mL. Working solution was freshly prepared at the specified concentration from stock solution in the corresponding supplemented medium.
RNA (ribonucleic acid) extraction and RT-qPCR (reverse transcription quantitative polymerase chain reaction) were performed. Briefly, HDFa and HEKa cells were seeded in duplicate (n=2) in 6-well plates at a density of 4×10^5 cells/well and maintained at standard culture conditions (106 Medium supplemented with 1% (v/v) LSGS for HDFa cells; Medium Epilife supplemented with 1% (v/v) EDGS and 1% (v/v) penicillin/streptomycin for HEKa cells; 37° C., 95% room humidity, 5% CO2) for 24 hours. Then, cells were treated with peptide Ac-SEQ ID NO: 1-NH2, Ac-SEQ ID NO: 2-NH2 or Ac-SEQ ID NO: 3-NH2 at the concentration of 0.01 mg/mL for 24 hours. Untreated cells were used as basal or negative control.
Cells were finally lysed, and replicates were pooled together for RNA extraction using Qiagen RNeasy Mini kit following manufacturer's instructions. Purified RNAs were used to generate the corresponding cDNAs (complementary deoxyribonucleic acids) by reverse transcription using a commercial kit High capacity cDNA reverse transcription kit (Applied Biosystems) which served as templates for amplification. RT-qPCR was performed with the appropriate TaqMan assay probes for IL33 (plus GAPDH—Glyceraldehyde 3-phosphate dehydrogenase—that was used as housekeeping gene) and 2×gene expression Master Mix using StepOne plus Real-Time PCR instrument. […] (Annealing and extension) (Arya, M., Shergill, I. S., Williamson, M., Gommersall, L., Arya, N., Patel, H. R. (2005) Basic principles of real-time quantitative PCR. Expert Rev. Mol. Diagn.; 5(2):209-19; and Jozefczuk, J. and Adjaye, J. (2011) Quantitative real-time PCR-based analysis of gene expression. Methods Enzymol. 500; 99-109).
The obtained data was analysed using the ΔΔCt method, which provides the target gene expression values as fold changes in the treated sample compared with an untreated basal sample. […]

integrin α9β1 (Itg9) = assay: Integrin α9β1 protein expression, immunofluorescence in HDLMVEC (Example 19); type: cell-based, Human
Protocol: HDLMVEC were cultured on coverslips in Microvascular Endothelial Cell Growth (MECG) Medium at a density of 16.000 cell/cm^2 and 37° C. in a humidified atmosphere with 5% CO2.
When cell confluence was around 70-80%, cells were treated with 0.05 mg/mL Ac-SEQ ID NO:1-NH2 in MECG medium for 24 hours. Then, cells were washed twice with PBS, fixed with 4% formaldehyde and permeabilized with Triton 0.2%. Next, samples were blocked for 1 hour with PBS/BSA 5%, in order to avoid nonspecific antibody binding.
Itg9 was stained with 1:50 anti-Itg9 antibody in PBS/BSA 1%, during 1.5 hours at room temperature. After proper washing with PBS, actin was stained with 50 μg/mL Phalloidin during 1 hour at room temperature. Then, cells were washed with PBS and incubated with 5 μg/mL of the secondary antibody Goat anti-Rabbit IgG for 1 hour at room temperature. Finally, coverslips were mounted using Vectashield with DAPI, that stains nuclei, and samples were kept protected from light at 4° C. until microscopic images were acquired.
Microscopic images were acquired using 10×objective. […]
Images were analyzed using Image J software. Shortly, threshold was adjusted to select Itg9 staining and mean fluorescent was measured. The number of cells was counted using the DAPI staining. […]

[1] = Protein glycation (AGE formation), fluorimetric (Example 14); type: biochemical; conditions: 0.01, 0.05, 0.1 and 0.5 mg/mL; 72 hours at 37° C.; vs negative control
Protocol: Briefly, 0.01, 0.05, 0.1 and 0.5 mg/mL of peptide Ac-SEQ ID NO: 1-NH2 were mixed together with a glycation agent and its corresponding substrate. Samples were incubated for 72 hours at 37° C. A fluorimetric method was used to evaluate the % of protein glycation compared to the negative control (sample only with sugar substrate).

[2] = tested on: Human Epidermal Keratinocytes (HEKa); assay: Innate antimicrobial immunity related genes, RT-qPCR in HEKa (Example 20); type: cell-based; conditions: 0.01 mg/mL, 6 h
[3] = tested on: recombinant mushroom tyrosinase; assay: Tyrosinase activity, L-DOPA/dopachrome absorbance (Example 11); type: biochemical; conditions: 0.05-2.5 mg/mL (Ac-SEQ ID NO: 4-NH2: 0.005-2.5 mg/mL); 30 minutes preincubation, L-DOPA, 2 hours, absorbance 450 nm; vs non-treated control (100%)
Protocol: Briefly, different concentrations of Ac-SEQ ID NO: 1-NH2 (0.05, 0.25, 0.5 and 2.5 mg/mL), Ac-SEQ ID NO: 2-NH2 (0.05, 0.25, 0.5 and 2.5 mg/mL), Ac-SEQ ID NO: 3-NH2 (0.05, 0.25, 0.5 and 2.5 mg/mL) and Ac-SEQ ID NO: 4-NH2 (0.005, 0.025, 0.05, 0.25, 0.5 and 2.5 mg/mL) and the positive control kojic acid (400 and 800 μM) were incubated with recombinant mushroom tyrosinase for 30 minutes before the addition of L-DOPA (L-3,4 dihidroxiphenilalanine, 2.5 mg/mL in PBS). After 2 hours' reaction at room temperature, the absorbance at 450 nm of each well was determined using the microplate reader Multiskan FC (Thermo Fisher Scientific, Mass., USA), which is directly proportional to the amount of dopachrome in the reaction mixture.

human skin explants = assay: Ex vivo methylglyoxal-induced glycation, CML immunostaining (Example 14); conditions: cream containing 1% (w/v) Ac-SEQ ID NO: 1-NH2, topical 2 mg/cm^2; methylglyoxal 500 μM; after 9 days of culture
Protocol: Briefly, human skin explants from a person were kept in survival in BEM culture medium at 37° C. in a humid, 5% CO2 atmosphere. […] Explants were collected at each timepoint and cut in two parts. Half was fixed in buffered formalin solution and half was frozen at −80° C.
After fixation for 24 hours in buffered formalin, the samples were dehydrated and impregnated in paraffin. 5-μm-thick sections were made using a Leica RM 2125 Minot-type microtome, and the sections were mounted on Superfrost® histological glass slides.

For “Ac-Arg-Arg-Gln-Met-Arg-Glu-NH2 (Ac-RRQMRE-NH2) [Ac-SEQ ID NO: 1-NH2]”, the “IL33 gene expression, fold change in treated cells with regard to basal control” value (IL33) was −4.58 fold change, the “% Mean of integrin α9β1 (Itg9) compared to untreated cells” value (integrin α9β1 (Itg9); 0.05 mg/mL, 24 hours, basal = 100.00) was 153.56% and the “increase of the expression of Itg9 when compared with the untreated cells” value (integrin α9β1 (Itg9); 24 hours of treatment) was > 50%. The protein glycation [1] was “able to protect from protein glycation”, the “DEFB1 Fold change vs. Basal” value [2] was 1.31 Fold change and the “DEFB4A Fold change vs. Basal” value [2] was 1.58 Fold change. For the same substance, the “IRF1 Fold change vs. Basal” value [2] was 1.25 Fold change, the “IRF3 Fold change vs. Basal” value [2] was 1.54 Fold change and the “ISG15 Fold change vs. Basal” value [2] was 1.38 Fold change. For the same substance, the “MX1 Fold change vs. Basal” value [2] was 1.93 Fold change, the “OAS2 Fold change vs. Basal” value [2] was 1.39 Fold change and the “S100A7 Fold change vs. Basal” value [2] was 2.04 Fold change. For the same substance, the tyrosinase activity [3] was “inhibited tyrosinase in all the concentrations tested” and the “decrease in CML signal when compared with MG-exposed untreated explants” value (human skin explants) was −73%.
